Test results reported in patent US20140371267A1, “OPHTHALMIC COMPOSITION WITH NITRIC OXIDE DONOR COMPOUND AND METHOD OF FORMING AND USING SAME” (ALCON RESEARCH, LTD., priority 2009, published 2014).

Tests used:
[1] = tested on: ARPE-19 cells; assay: 7-ketocholesterol-induced RPE cell death, WST-1 cell viability; assay type: cell-based; conditions: for % Survival: compared to media-treated cells
Protocol: Compound 1 was evaluated for its ability to prevent 7-ketocholesterol-induced retinal pigmented epithelial (RPE) cell death in vitro. ARPE-19 cells were grown in DMEM:F12 (Invitrogen) (1:1) with 10% FBS (HyClone) and 56 mM Na Bicarbonate (Gibco) in a 10% CO2 humidified 37° C. incubator. Cells were split at a ratio of 1:3 once per week and fed every 2-3 days. ARPE-19 cells were plated at a density of 12,500 cells per well in 100 μL, which is approximately […].
7-ketocholesterol (5-CHOLESTEN-3β-OL-7-ONE) and Cholesterol (5-CHOLESTEN-3β-OL) (Steraloids, Inc., Newport R.I.) were resuspended in 37° C. 45% 2-hydroxylpropyl-β-cyclodextrin at a concentration of 10 mM. Working dilutions of 1 mM are subsequently made in 37° C. DMEM:/F12 containing 0.1% FBS and NaBicarb. Further dilutions (5 to 30 μM) for treatment were also made in 37° C. DMEM:F12 with 0.1% FBS and NaBicarb to maintain activity of the 7-ketocholesterol. As negative controls, vehicle alone and cholesterol suspended in 2-HP-β-cyclodextrin were included in each experiment.
Cell proliferation reagent WST-1 (Roche), a tetrazolium salt that is cleaved to formazan through the mitochondrial succinate-tetrazolium-reductase system in live cells, was used as a measure of cell viability. Cells were treated with 7-ketocholesterol for 1 day, at which time 10 μL at of WST-1 reagent was added to each well containing 100 μL at of media. The plates were then incubated for 1-4 hours to allow for adequate color development and then absorbance was read in a microplate ELISA reader at […]. WST reagent was also added to one set of control wells containing media only. These readings were subtracted from each of the WST readings as background. Cell viability for all treated wells was normalized to the well with untreated cells and data is presented as percent survival as compared to untreated. The table below summarizes the results.

[2] = vasodilators; cited from earlier work
[3] = tested on: cynomolgus monkeys with ocular hypertension; assay: IOP reduction in lasered ocular hypertensive monkeys; assay type: in vivo; conditions: 150 μg in 30 μL drop, topical, lasered eye
Protocol: The ability of compound 1 of the present invention to reduce IOP was evaluated in cynomolgus monkeys with ocular hypertension produced by previous laser trabeculoplasty in the right eye. Animals had been trained to sit in restraint chairs and conditioned to accept experimental procedures without chemical restraint. Animals were administered a 30 μL drop containing 150 μg of compound 1 dissolved in vehicle to the lasered eye. IOP was determined with a pneumatonometer after light corneal anesthesia with dilute proparacaine. The drug was dosed 35 minutes after the baseline IOP was measured.

[4] = in vitro; versus GTN and SNAP; cited from earlier work
[5] = tested on: c-GMP; conditions: cited from earlier work

Compound	% Survival ([1]; 7-ketocholesterol 20 μM alone, 1 day) [%]	NO-tolerance in vivo [2]	RPE cytoprotection ([1]; 10 μM)	RPE cytoprotection ([1]; 100 μM)	% Survival ([1]; compound at 100 nM, 7-ketocholesterol-treated cells) [%]	% Survival ([1]; compound at 1 μM, 7-ketocholesterol-treated cells) [%]	% Survival ([1]; compound at 10 μM, 7-ketocholesterol-treated cells) [%]	% Survival ([1]; compound at 100 μM, 7-ketocholesterol-treated cells) [%]	% IOP change from baseline ([3]; 1 hour after dosing) [%]	% IOP change from baseline ([3]; 3 hours after dosing) [%]	% IOP change from baseline ([3]; 6 hours after dosing) [%]	vasorelaxation efficacy [4]	c-GMP concentration [5]	c-GMP effect relative to GTN [5]
CC(C)CCC[C@@H](C)[C@H]1CC[C@H]2[C@@H]3C(=O)C=C4C[C@@H](O)CC[C@]4(C)[C@H]3CC[C@]12C [7-ketocholesterol, 5-CHOLESTEN-3β-OL-7-ONE, reference compound]	50	–	–	–	–	–	–	–	–	–	–	–	–	–
CC1(C)CC(O[N+](=O)[O-])CC(C)(C)N1[O] [Compound 1]	–	do not produce NO-tolerance in vivo	significant	complete	60	60	75	100	−15.3	−16.7	−20.7	superior activity	significant increase	comparable to that of GTN
CC1(C)CC(CO[N+](=O)[O-])C(C)(C)N1[O] (stereo not drawn) [Compound 2, 3-Nitratomethyl-Proxyl]	–	do not produce NO-tolerance in vivo	–	–	–	–	–	–	–	–	–	–	–	–
